Measurements taken from patent US20220151979A1, “COMPOSITION FOR PREVENTION OR TREATMENT OF CARDIOVASCULAR AND METABOLIC DISEASE COMPRISING NORANHYDROICARITIN” (SEOUL NATIONAL UNIVERSITY HOSPITAL, priority 2019, published 2022).

Columns and labels:
Type in all cases: cell-based, human
PCSK9 [1] = assay: Immunoblot of PCSK9 in HepG2 cells, noranhydroicaritin and pravastatin, pitavastatin, fluvastatin or simvastatin (Table 1); conditions: statin 5 μM singly, untreated = 1 ± 0.04
Procedure: (§1) The cells aliquoted by the method of Example 7 were treated with noranhydroicaritin or each statin (pravastatin, pitavastatin, fluvastatin, or simvastatin) singly or with noranhydroicaritin and a statin (pravastatin, pitavastatin, fluvastatin, or simvastatin) simultaneously, and the proteins were extracted. On an SDS-polyacrylamide gel, 30 μg of each protein was electrophoresed, and attached to a membrane, and then protein expression levels were confirmed using the respective antibodies: PCSK9 and LDLR.

PCSK9 [2] = assay: Immunoblot of PCSK9 in HepG2 cells, noranhydroicaritin and statin singly or in combination; conditions: treated singly
Procedure: as §1, with “or a” for “or each”, “statin (atorvastatin” for “statin (pravastatin, pitavastatin, fluvastatin,”, “or rosuvastatin)” for “or simvastatin)”, “antibodies: phospho-AMPK, PCSK9, LDLR,” for “antibodies: PCSK9”, “and PPARγ.” for “and LDLR.”

SREBP 1 promoter = assay: SREBP 1 promoter-reporter luciferase assay in HEK293T cells; conditions: pGL4.14-SREBP-transfected HEK293T cells, 18 hours, compared to control
Procedure: (§2) In order to confirm the SREBP gene expression inhibitory effect of noranhydroicaritin, HEK293T cells were treated with noranhydroicaritin and kaempferol, and it was confirmed whether the expression of SREBP was inhibited through a luciferase assay.
(§3) i) A primer was prepared to contain KpnI and XhoI restriction enzyme sites in the SREBP 1 and 2 promoter gene region, and then PCR (polymerase chain reaction) and electrophoresis on an agarose gel were performed to isolate SREBP promoter region DNA. A pGL4.14-[luc2/Hygro] vector containing a firefly luciferase as a reporter gene was treated with the same restriction enzymes (KpnI and XhoI), and then isolated via agarose gel electrophoresis and gel extraction. The purely isolated SREBP promoter gene region and pGL4.14-[luc2/Hygro] vector were reacted for 1 hour using In-fusion DNA ligase (Takara), and then transformed into E. coli to prepare a promoter-reporter construct in which the SREBP promoter was inserted, and this was named pGL4.14-SREBP.
(§4) ii) In order to measure the transcriptional activity of the SREBP promoter gene, HEK293T cells were transfected with pGL4.14-SREBP, and then the luciferase activity of the cell extract was measured. […] Thereafter, the luciferase activity was measured by the method of Example 6. […]

SREBP 2 promoter = assay: SREBP 2 promoter-reporter luciferase assay in HEK293T cells; conditions: pGL4.14-SREBP-transfected HEK293T cells, 18 hours, compared to control
Procedure: as §2, §3, §4

Row | Compound | PCSK9 (PCSK9 [1]) | other results
1 | CC(C)n1c(/C=C/C(O)CC(O)CC(=O)O)c(-c2ccc(F)cc2)c2ccccc21 (centres unmarked) [Fluvastatin, fluvastatin] | 1.63 ± 0.02 | 
2 | O=C(O)C[C@H](O)C[C@H](O)/C=C/c1c(C2CC2)nc2ccccc2c1-c1ccc(F)cc1 [Pitavastatin, pitavastatin] | 1.59 ± 0.02 | 
3 | CC[C@H](C)C(=O)O[C@H]1C[C@H](O)C=C2C=C[C@H](C)[C@H](CC[C@@H](O)C[C@@H](O)CC(=O)O)[C@H]21 [Pravastatin, pravastatin] | 1.9 ± 0.06 | 
4 | CCC(C)(C)C(=O)O[C@H]1C[C@@H](C)C=C2C=C[C@H](C)[C@H](CC[C@@H]3C[C@@H](O)CC(=O)O3)[C@H]21 [Simvastatin, simvastatin] | 1.85 ± 0.11 | 
5 | CC(C)c1c(C(=O)Nc2ccccc2)c(-c2ccccc2)c(-c2ccc(F)cc2)n1CC[C@@H](O)C[C@@H](O)CC(=O)O [atorvastatin] |  | quantity of PCSK9 (immunoblot) (PCSK9 [2]): increased
6 | O=c1c(O)c(-c2ccc(O)cc2)oc2cc(O)cc(O)c12 [kaempferol, reference compound] |  | SREBP 1 luciferase activity (SREBP 1 promoter): actually increased; SREBP 2 luciferase activity (SREBP 2 promoter): actually increased
7 | CC(C)c1nc(N(C)S(C)(=O)=O)nc(-c2ccc(F)cc2)c1/C=C/[C@@H](O)C[C@@H](O)CC(=O)O [rosuvastatin] |  | quantity of PCSK9 (immunoblot) (PCSK9 [2]): increased
